ChEMBL document CHEMBL4651402, “Screening of ~5500 FDA-approved drugs and clinical candidates for anti-SARS-CoV-2 activity” (2021)

Assays:
SARS-CoV-2 [1] = test: microbe, parasite or virus in culture; conditions: Severe acute respiratory syndrome coronavirus 2, Vero C1008, 48 h
SARS-CoV-2 [2] = test: microbe, parasite or virus in culture; assay type: functional, organism-based, Chlorocebus sabaeus, Vero C1008; conditions: Severe acute respiratory syndrome coronavirus 2, Vero C1008, 48 h
in vitro = conditions: chlorocebus sabaeus, Vero E6 (Vero C1008) cells

Structure (SMILES) | IC50 (SARS-CoV-2 [1]) | IC50 (SARS-CoV-2 [1]; read-out: pIC50 (converted)) | IC50 (SARS-CoV-2 [2]; read-out: IC50) | IC50 (SARS-CoV-2 [2]; read-out: pIC50 (converted)) | CC50 at 48 h (in vitro; CC50) | CC50 at 48 h (in vitro; pCC50)
COc1nc(N)nc2c1ncn2[C@@H]1O[C@H](COP(=O)(N[C@@H](C)C(=O)OCC(C)(C)C)Oc2cccc3ccccc23)[C@@H](O)[C@@]1(C)O (stereo partly specified) [BMS-986094] | > 20 µM | > 20 µM | > 20 µM | > 20 µM |  | 
CCOC(=O)C1=C(C)NC(C)=C(C(=O)OCC)C1c1ccccc1/C=C/C(=O)OC(C)(C)C [LACIDIPINE] | > 10 µM | > 10 µM |  |  | 7.24 µM | 7.24 µM
CN(C)C(=O)C(CCN1CCC(O)(c2ccc(Cl)cc2)CC1)(c1ccccc1)c1ccccc1 [LOPERAMIDE] |  |  |  |  | ~22 µM | ~21.9 µM
CCOc1cc2ncc(C#N)c(Nc3ccc(OCc4ccccn4)c(Cl)c3)c2cc1NC(=O)/C=C/CN(C)C [NERATINIB] |  |  | > 10 µM | > 10 µM | > 10 µM | > 10 µM
O=C1OC2(c3ccc(O)cc3Oc3cc(O)ccc32)c2ccccc21 [FLUORESCEIN] |  |  | > 0.309 µM | > 0.309 µM | > 20 µM | > 20 µM
CN1CC(=O)N=C1NC(=O)Nc1cccc(Cl)c1 [FENOBAM ANHYDROUS] | > 20 µM | > 20 µM | > 25.1 µM | > 25.1 µM |  | 
CCOC(=O)O[C@]1(C(=O)OCCl)CC[C@H]2[C@@H]3CCC4=CC(=O)C=C[C@]4(C)[C@H]3[C@@H](O)C[C@@]21C [LOTEPREDNOL ETABONATE] |  |  | > 20 µM | > 20 µM | > 20 µM | > 20 µM
COc1cccc2c1C(=O)c1c(O)c3c(c(O)c1C2=O)C[C@@](O)(C(=O)CO)C[C@@H]3O[C@H]1C[C@H](N)[C@@H](O)[C@H](C)O1 [EPIRUBICIN] |  |  | > 100 µM | > 100 µM |  | 
Nc1ccn([C@@H]2O[C@H](CO)[C@@H](O)[C@@H]2O)c(=O)n1 [CYTARABINE] | > 50.1 µM | > 50.1 µM | > 20 µM | > 20 µM |  | 
Cc1nc2ccc(Oc3ccccc3)cc2c2c1CCN2CCc1ccccc1 | > 20 µM | > 20 µM | ~4.9 µM | ~4.9 µM |  | 
OCCN1CCN(CCCN2c3ccccc3Sc3ccc(C(F)(F)F)cc32)CC1 [FLUPHENAZINE] |  |  |  |  | 7.76 µM | 7.76 µM
CCC1=C[C@@H]2CN(C1)Cc1c([nH]c3ccccc13)[C@@](C(=O)OC)(c1cc3c(cc1OC)N(C)[C@H]1[C@@](O)(C(=O)OC)[C@H](OC(C)=O)[C@]4(CC)C=CCN5CC[C@]31[C@@H]54)C2 [VINORELBINE] |  |  | > 20 µM | > 20 µM | 14.5 µM | 14.5 µM
CC(C)C(=O)OC[C@H]1O[C@@H](n2cc/c(=N\O)[nH]c2=O)[C@H](O)[C@@H]1O [MOLNUPIRAVIR] | 14.1 µM | 14.1 µM | ~4.56 µM | ~4.57 µM |  | 
O=C1CCc2ccc(OCCCCN3CCN(c4cccc(Cl)c4Cl)CC3)cc2N1 [ARIPIPRAZOLE] |  |  |  |  | 11.4 µM | 11.2 µM
CC[C@@H](C(=O)[C@@H](C)[C@@H](O)[C@H](C)[C@@H]1O[C@@H]([C@@H](CC)C(=O)O)CC[C@@H]1C)[C@H]1O[C@]2(C=C[C@@H](O)[C@]3(CC[C@@](C)([C@H]4CC[C@](O)(CC)[C@H](C)O4)O3)O2)[C@H](C)C[C@@H]1C [SALINOMYCIN] | > 20 µM | > 20 µM | 1.29 µM | 1.29 µM |  | 
COc1cc2c(c(OC)c1OC)-c1ccc(OC)c(=O)cc1[C@@H](NC(C)=O)CC2 [COLCHICINE] | > 100 µM | > 100 µM | > 100 µM | > 100 µM |  | 
CN(C)C/C=C(\c1ccc(Br)cc1)c1cccnc1 | > 20 µM | > 20 µM |  |  | > 10 µM | > 10 µM
CSc1ccc2c(c1)N(CCC1CCCCN1C)c1ccccc1S2 (stereo unspecified) [THIORIDAZINE] |  |  |  |  | ~6.38 µM | ~6.31 µM
CN1CC[C@H](c2c(O)cc(O)c3c(=O)cc(-c4ccccc4Cl)oc23)[C@H](O)C1 [ALVOCIDIB] | > 20 µM | > 20 µM | > 10 µM | > 10 µM |  | 
CN1c2c([nH]c(N)nc2=O)NCC1CNc1ccc(C(=O)N[C@@H](CCC(=O)O)C(=O)O)cc1 (stereo partly specified) |  |  | > 20 µM | > 20 µM |  | 
CN(C)C(=O)COC(=O)Cc1ccc(OC(=O)c2ccc(NC(=N)N)cc2)cc1 [CAMOSTAT] | > 20 µM | > 20 µM | > 100 µM | > 100 µM |  | 
CC(C)CN(C[C@H](O)[C@H](Cc1ccccc1)NC(=O)O[C@H]1CO[C@@H]2OCC[C@@H]21)S(=O)(=O)c1ccc(N)cc1 | > 20 µM | > 20 µM | > 20 µM | > 20 µM |  | 
CC1(C)S[C@@H]2[C@H](NC(=O)C(C(=O)O)c3ccccc3)C(=O)N2[C@H]1C(=O)O (stereo partly specified) [CARBENICILLIN] |  |  | > 20 µM | > 20 µM | > 20 µM | > 20 µM
CCOC(=O)c1c(CSc2ccccc2)n(C)c2cc(Br)c(O)c(CN(C)C)c12 [UMIFENOVIR] | > 100 µM | > 100 µM | > 100 µM | > 100 µM |  | 
CCOc1nc(N)nc2c1ncn2[C@@H]1O[C@@H]2CO[P@](=O)(OC(C)C)O[C@H]2[C@@]1(C)F | > 20 µM | > 20 µM | > 50.1 µM | > 50.1 µM |  | 
Nc1ccn([C@@H]2S[C@H](CO)[C@@H](O)[C@@H]2O)c(=O)n1 [THIARABINE] | > 20 µM | > 20 µM | ~12.3 µM | ~12.3 µM |  | 
CC(COc1ccccc1)N(CCCl)Cc1ccccc1 (stereo unspecified) [PHENOXYBENZAMINE] | 20 µM | 20 µM | > 100 µM | > 100 µM |  | 

Structure (SMILES) | IC50 (SARS-CoV-2 [1]) | IC50 (SARS-CoV-2 [1]; read-out: pIC50 (converted)) | IC50 (SARS-CoV-2 [2]; read-out: IC50) | IC50 (SARS-CoV-2 [2]; read-out: pIC50 (converted)) | CC50 at 48 h (in vitro; CC50) | CC50 at 48 h (in vitro; pCC50)
CN1[C@@H]2CC[C@H]1CC(OC(c1ccccc1)c1ccccc1)C2 (stereo partly specified) |  |  |  |  | ~46.8 µM | ~46.8 µM
CN(C)CCCN1c2ccccc2CCc2ccc(Cl)cc21 [CLOMIPRAMINE] |  |  |  |  | 16 µM | 15.8 µM
CN(C[C@@H]1COCCO1)S(=O)(=O)Nc1ccc2ccc3ncc(-c4cnn(C)c4)cc3c(=O)c2c1 [MK-2461] | > 20 µM | > 20 µM | > 20 µM | > 20 µM |  | 
Cc1nc(OCCCCCN2CCCCC2)cc(-c2ccc(F)cc2)n1 [ENECADIN] | 1.74 µM | 1.74 µM | 21.9 µM | 21.9 µM |  | 
c1cc(OCCCN2CCCCC2)ccc1CN1CCCCC1 [JNJ-5207852] | > 20 µM | > 20 µM | > 20 µM | > 20 µM |  | 
Nc1ccn([C@@H]2S[C@H](CO)[C@@H](O)[C@H]2F)c(=O)n1 | > 20 µM | > 20 µM | > 20 µM | > 20 µM |  | 
Cc1c(-c2ccc(-c3ccccc3F)cc2)nc2ccc(F)cc2c1C(=O)O [BREQUINAR] | > 20 µM | > 20 µM | > 20 µM | > 20 µM |  | 
CC(C)[C@H](C(=O)Nc1ccc(C(=O)NO)cc1)c1ccccc1 [AR-42] | > 20 µM | > 20 µM |  |  | 0.851 µM | 0.851 µM
CCC(C)n1ncn(-c2ccc(N3CCN(c4ccc(OCC5COC(Cn6cncn6)(c6ccc(Cl)cc6Cl)O5)cc4)CC3)cc2)c1=O (stereo unspecified) [ITRACONAZOLE] | > 100 µM | > 100 µM |  |  | > 100 µM | > 100 µM
COc1ccc(CCN2CCC(Nc3nc4ccccc4n3Cc3ccc(F)cc3)CC2)cc1 [ASTEMIZOLE] |  |  |  |  | 7.5 µM | 7.41 µM
NCCCCCN |  |  | > 20 µM | > 20 µM |  | 
CCOc1ccc(-n2c([C@@H](C)N(Cc3cccnc3)C(=O)Cc3ccc(OC(F)(F)F)cc3)nc3ncccc3c2=O)cc1 (racemic) | > 20 µM | > 20 µM | > 20 µM | > 20 µM |  | 
CCN(CC)CCOc1ccc(C(=C(Cl)c2ccccc2)c2ccccc2)cc1 [CLOMIPHENE] | > 20 µM | > 20 µM | > 20 µM | > 20 µM |  | 
CC[C@@H]1C(=O)N(C)c2cnc(Nc3ccc(C(=O)NC4CCN(C)CC4)cc3OC)nc2N1C1CCCC1 [BI-2536] |  |  |  |  | 0.603 µM | 0.603 µM
C#C[C@@]1(O)[C@@H](CO)O[C@@H](n2ccc(N)nc2=O)[C@@H]1O [TAS-106] | > 20 µM | > 20 µM |  |  |  | 
COc1ccc(NS(=O)(=O)c2ccc(N)cc2)nn1 [SULFAMETHOXYPYRIDAZINE] | > 20 µM | > 20 µM |  |  |  | 
COc1ccc(S(=O)(=O)Nc2cccnc2Nc2ccc(O)cc2)cc1 [ABT-751] | > 20 µM | > 20 µM |  |  |  | 
CCOC(=O)C1=C(CN2CCOCC2)NC(c2nccs2)=N[C@@H]1c1ccc(F)cc1Br | > 20 µM | > 20 µM |  |  |  | 
CC1(C)CCC2(C)CCC3(C)C(=CCC4C5(C)CCC(O)C(C)(C)[C@@H]5CCC43C)C2C1 (stereo partly specified) | > 20 µM | > 20 µM |  |  |  | 
O=C(O)COC[C@H]1CC[C@H](COC(=O)N(c2ccccc2)c2ccc(Cl)cc2)CC1 | > 20 µM | > 20 µM |  |  |  | 
CCN[C@H]1CN(CCCOC)S(=O)(=O)c2sc(S(N)(=O)=O)cc21 [BRINZOLAMIDE] | > 20 µM | > 20 µM |  |  |  | 
C[C@H](NC(=O)C(C)(C)Oc1ccc(C(F)(F)F)cn1)[C@@H](Cc1ccc(Cl)cc1)c1cccc(C#N)c1 [TARANABANT] | > 20 µM | > 20 µM |  |  |  | 
OC[C@H]1O[C@@H](n2cnc3c2N=CNC[C@H]3O)C[C@@H]1O [PENTOSTATIN] | > 20 µM | > 20 µM |  |  |  | 
CCN(CCCc1ccccc1)CCCc1ccccc1 [ALVERINE] | > 20 µM | > 20 µM |  |  |  | 
O=C(O)c1cccc(-c2noc(-c3ccccc3F)n2)c1 | > 20 µM | > 20 µM |  |  |  | 
CC[N+](CC)(CC)CCC(O)(c1ccccc1)C1CCCCC1 (stereo unspecified) [TRIDIHEXETHYL] | > 20 µM | > 20 µM |  |  |  | 
